Measured values reported in the NIST ThermoML archive (doi:10.1021/acs.jced.7b00106).

Details: Liquid, Hot wire method

FC(F)(F)/C=C/Cl [(E)-1-chloro-3,3,3-trifluoroprop-1-ene]
Details	thermal conductivity [W/m/K]
203.56 K, 10316 kPa	0.1156
203.65 K, 10337 kPa	0.1151
203.67 K, 219 kPa	0.1135
203.67 K, 10365 kPa	0.116
203.68 K, 5190 kPa	0.1132
203.68 K, 10370 kPa	0.1166
203.76 K, 231 kPa	0.113
203.76 K, 10344 kPa	0.1159
203.77 K, 5194 kPa	0.1133
203.77 K, 10372 kPa	0.1156
203.91 K, 10339 kPa	0.1163
204.02 K, 228 kPa	0.1135
204.02 K, 5185 kPa	0.114
204.02 K, 10301 kPa	0.1153
204.02 K, 10366 kPa	0.1154
204.02 K, 10378 kPa	0.1158
204.12 K, 10382 kPa	0.1152
204.13 K, 232 kPa	0.1125
204.13 K, 5176 kPa	0.1137
204.13 K, 10374 kPa	0.1153
204.3 K, 10296 kPa	0.1148
204.4 K, 223 kPa	0.1124
204.4 K, 5171 kPa	0.1142
204.4 K, 10360 kPa	0.1158
204.41 K, 10375 kPa	0.1154
204.43 K, 10300 kPa	0.1153
204.53 K, 10368 kPa	0.1152
204.54 K, 5176 kPa	0.1138
204.54 K, 10353 kPa	0.115
204.55 K, 227 kPa	0.1121
204.71 K, 10305 kPa	0.115
204.81 K, 10351 kPa	0.1146
204.81 K, 10361 kPa	0.1153
204.82 K, 232 kPa	0.1125
204.82 K, 5179 kPa	0.1141
204.88 K, 10317 kPa	0.1155
204.97 K, 10365 kPa	0.1148
204.98 K, 5182 kPa	0.1135
204.98 K, 10343 kPa	0.1151
204.99 K, 223 kPa	0.1121
205.17 K, 10310 kPa	0.1155
205.25 K, 10392 kPa	0.1152
205.26 K, 10349 kPa	0.1152
205.27 K, 5170 kPa	0.1139
205.29 K, 230 kPa	0.1124
205.36 K, 10304 kPa	0.1149
205.44 K, 10383 kPa	0.1147
205.45 K, 10380 kPa	0.1147
205.46 K, 5164 kPa	0.1134
205.48 K, 239 kPa	0.1121
222.19 K, 65394 kPa	0.1242
222.21 K, 54365 kPa	0.1216
222.27 K, 44671 kPa	0.1193
222.28 K, 65396 kPa	0.1238
222.3 K, 35555 kPa	0.1171
222.32 K, 26424 kPa	0.1148
222.32 K, 54366 kPa	0.1215
222.35 K, 17783 kPa	0.1123
222.37 K, 44672 kPa	0.1196
222.39 K, 449 kPa	0.1078
222.39 K, 8723 kPa	0.1103
222.4 K, 35559 kPa	0.1171
222.42 K, 26428 kPa	0.1148
222.45 K, 17781 kPa	0.1124
222.49 K, 8727 kPa	0.1099
222.5 K, 449 kPa	0.1068
222.54 K, 65394 kPa	0.1248
222.57 K, 54367 kPa	0.1222
222.62 K, 44672 kPa	0.1196
222.67 K, 35561 kPa	0.1177
222.69 K, 54366 kPa	0.1219
222.7 K, 26430 kPa	0.1145
222.73 K, 17781 kPa	0.1124
222.75 K, 44676 kPa	0.1192
222.77 K, 8729 kPa	0.1105
222.79 K, 453 kPa	0.107
222.79 K, 26430 kPa	0.1147
222.79 K, 35560 kPa	0.1173
222.86 K, 17785 kPa	0.112
222.91 K, 8723 kPa	0.1098
222.91 K, 65386 kPa	0.1248
222.92 K, 456 kPa	0.1067
222.97 K, 54368 kPa	0.122
223.03 K, 44680 kPa	0.1196
223.06 K, 65383 kPa	0.1239
223.07 K, 35560 kPa	0.1178
223.11 K, 26433 kPa	0.1152
223.11 K, 54368 kPa	0.122
223.14 K, 17782 kPa	0.1124
223.17 K, 44685 kPa	0.1194
223.21 K, 8729 kPa	0.1098
223.22 K, 35566 kPa	0.1174
223.23 K, 454 kPa	0.1071
223.26 K, 26433 kPa	0.1147
223.3 K, 17785 kPa	0.112
223.34 K, 65385 kPa	0.1243
223.36 K, 8728 kPa	0.1097
223.39 K, 453 kPa	0.1069
223.39 K, 54369 kPa	0.1224
223.46 K, 44687 kPa	0.1198
223.5 K, 65379 kPa	0.1241
223.51 K, 35560 kPa	0.1174
223.56 K, 26434 kPa	0.1151
223.56 K, 54369 kPa	0.1215
223.6 K, 17788 kPa	0.1125
223.63 K, 44686 kPa	0.1196
223.67 K, 8730 kPa	0.1101
223.68 K, 35563 kPa	0.1172
223.71 K, 455 kPa	0.1073
223.73 K, 26431 kPa	0.1148
223.78 K, 17788 kPa	0.1121
223.79 K, 65376 kPa	0.1246
223.85 K, 54372 kPa	0.122
223.86 K, 8734 kPa	0.1093
223.89 K, 457 kPa	0.1068
223.93 K, 44690 kPa	0.1197
223.98 K, 35565 kPa	0.1178
223.98 K, 65378 kPa	0.124
224.04 K, 26437 kPa	0.1151
224.05 K, 54371 kPa	0.1216
224.1 K, 17783 kPa	0.1124
224.13 K, 44694 kPa	0.1195
224.18 K, 8734 kPa	0.1094
224.19 K, 35567 kPa	0.1173
224.23 K, 457 kPa	0.107
224.25 K, 26439 kPa	0.1146
224.31 K, 17787 kPa	0.1119
224.39 K, 8734 kPa	0.1092
224.45 K, 456 kPa	0.1066
241.66 K, 13434 kPa	0.1054
241.67 K, 7098 kPa	0.1036
241.69 K, 586 kPa	0.1011
241.75 K, 13448 kPa	0.1051
241.78 K, 7107 kPa	0.1033
241.79 K, 578 kPa	0.1008
241.92 K, 53262 kPa	0.1169
241.93 K, 63858 kPa	0.1199
241.94 K, 36063 kPa	0.1121
241.94 K, 43857 kPa	0.1153
241.99 K, 28061 kPa	0.1109
242.03 K, 20422 kPa	0.1077
242.03 K, 53260 kPa	0.1171
242.03 K, 63849 kPa	0.1192
242.04 K, 43848 kPa	0.114
